Measurements: article PMC8881610 (Nature Communications, 2022)

Columns and labels:
[1] = target: GLP-1R (Homo sapiens, UniProt P43220, Y205A); test: Whole-cell binding assay, competition with 125I-GLP-1(7-36)NH2; set-up: Flag; expressed in transfected cells; conditions: GLP-1R Y205A, CHO-K1
In short: (§1)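 CHO-K1 cells transiently transfected with WT or mutant receptor constructs, washed in F-12 with 0.1% BSA or casein/33 mM HEPES and incubated 2 h at 37 °C. Bound radioactivity counted after Triton lysis; data normalized to WT and fitted to a three-parameter logistic equation.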

[2] = target: GLP-1R (Homo sapiens, UniProt P43220, K202A); test: as above; set-up: Flag; expressed in transfected cells; conditions: GLP-1R K202A, CHO-K1
Sequence of GLP-1R (Homo sapiens, UniProt P43220, K202A) (P43220 24-463 K202A): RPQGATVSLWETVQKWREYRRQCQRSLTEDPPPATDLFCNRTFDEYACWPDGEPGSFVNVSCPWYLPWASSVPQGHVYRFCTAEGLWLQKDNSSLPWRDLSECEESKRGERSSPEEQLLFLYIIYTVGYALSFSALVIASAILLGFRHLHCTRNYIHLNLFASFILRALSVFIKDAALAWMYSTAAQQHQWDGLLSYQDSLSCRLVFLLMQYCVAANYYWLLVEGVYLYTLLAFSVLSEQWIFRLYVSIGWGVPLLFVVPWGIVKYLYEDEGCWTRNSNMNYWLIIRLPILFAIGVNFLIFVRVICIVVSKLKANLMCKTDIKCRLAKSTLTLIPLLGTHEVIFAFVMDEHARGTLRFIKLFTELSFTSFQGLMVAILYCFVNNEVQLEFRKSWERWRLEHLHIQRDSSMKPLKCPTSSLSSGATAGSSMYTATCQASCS
In short: as §1

[3] = target: GLP-1R (Homo sapiens, UniProt P43220, R134A); test: as above; set-up: Flag; expressed in transfected cells; conditions: GLP-1R R134A, CHO-K1
Sequence of GLP-1R (Homo sapiens, UniProt P43220, R134A) (P43220 24-463 R134A): as the sequence (P43220 24-463 K202A) above, with R111A, A179K counted along it
In short: as §1

[4] = target: GLP-1R (Homo sapiens, UniProt P43220, Q210A); test: as above; set-up: Flag; expressed in transfected cells; conditions: GLP-1R Q210A, CHO-K1
Sequence of GLP-1R (Homo sapiens, UniProt P43220, Q210A) (P43220 24-463 Q210A): as the sequence (P43220 24-463 K202A) above, with A179K, Q187A counted along it
In short: as §1

[5] = target: GLP-1R (Homo sapiens, UniProt P43220, W39A); test: as above; set-up: Flag; expressed in transfected cells; conditions: GLP-1R W39A; CHO-K1
Sequence of GLP-1R (Homo sapiens, UniProt P43220, W39A) (P43220 24-463 W39A): as the sequence (P43220 24-463 K202A) above, with W16A, A179K counted along it
In short: as §1

[6] = target: GLP-1R (Homo sapiens, UniProt P43220, D198A/K202A/Y145A); test: as above; set-up: Flag; expressed in transfected cells; conditions: GLP-1R Y145A/D198A/K202A, CHO-K1
Sequence of GLP-1R (Homo sapiens, UniProt P43220, D198A/K202A/Y145A) (P43220 24-463 Y145A/D198A/K202A): as the sequence (P43220 24-463 K202A) above, with Y122A, D175A counted along it
In short: as §1

[7] = target: GLP-1R (Homo sapiens, UniProt P43220, W91A); test: as above; set-up: Flag; expressed in transfected cells; conditions: GLP-1R W91A, CHO-K1
Sequence of GLP-1R (Homo sapiens, UniProt P43220, W91A) (P43220 24-463 W91A): as the sequence (P43220 24-463 K202A) above, with W68A, A179K counted along it
In short: as §1

[8] = target: GLP-1R (Homo sapiens, UniProt P43220, D198A); test: as above; set-up: Flag; expressed in transfected cells; conditions: GLP-1R D198A, CHO-K1
Sequence of GLP-1R (Homo sapiens, UniProt P43220, D198A) (P43220 24-463 D198A): as the sequence (P43220 24-463 K202A) above, with D175A, A179K counted along it
In short: as §1

[9] = target: T1, GIPR (Homo sapiens, UniProt P48546, Y145A); test: Whole-cell binding assay, competition with 125I-GIP1-42; conditions: GIPR Y145A; CHO-K1
T1 construct: acylated tirzepatide to the full-length or modified; Flag; expressed in transfected cells
T1 sequence (P48546 22-466 Y145A): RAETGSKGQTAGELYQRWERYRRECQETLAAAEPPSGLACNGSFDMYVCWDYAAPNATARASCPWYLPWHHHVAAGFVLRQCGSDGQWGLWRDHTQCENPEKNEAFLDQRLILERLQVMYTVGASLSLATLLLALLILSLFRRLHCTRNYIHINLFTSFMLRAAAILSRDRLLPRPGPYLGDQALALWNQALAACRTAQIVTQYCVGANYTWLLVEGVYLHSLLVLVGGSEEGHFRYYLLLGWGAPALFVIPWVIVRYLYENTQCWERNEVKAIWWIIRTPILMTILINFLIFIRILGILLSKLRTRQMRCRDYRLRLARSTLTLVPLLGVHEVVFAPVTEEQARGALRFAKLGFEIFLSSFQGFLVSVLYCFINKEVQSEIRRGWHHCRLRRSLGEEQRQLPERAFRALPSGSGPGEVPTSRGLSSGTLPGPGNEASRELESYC
Procedure: (§2) Human embryonic kidney 293 cells containing SV40 large T-antigen (HEK293T) were cultured in DMEM (Gibco) supplemented with 10% (v/v) fetal bovine serum (FBS, Gibco), 1 mM sodium pyruvate (Gibco) and 100 units/mL penicillin and 100 μg/mL streptomycin at 37 °C in 5% CO2. Chinese hamster ovary (CHO-K1) cells were cultured in F-12 (Gibco) containing 10% FBS, 100 units/mL penicillin and 100 μg/mL streptomycin at 37 °C in 5% CO2. For cAMP and receptor expression assays, HEK293T cells were seeded into 6-well cell culture plates at a density of 7 × 10^5 cells per well. After overnight incubation, cells were transfected with GIPR, GLP-1R or GCGR construct using Lipofectamine 2000 or Lipofectamine 3000 transfection reagent (Invitrogen). For whole-cell binding assay, CHO-K1 cells were seeded into 96-well fibronectin-treated cell culture plates at a density of 3 × 10^4 cells per well. […] Following 24 h culturing, the transfected cells were ready for use.
For GIPR, CHO-K1 cells were cultured in F-12 medium with 10% FBS and seeded at a density of 30,000 cells/well in Isoplate-96 plates (PerkinElmer). […] Fifty µL of scintillation cocktail (OptiPhase SuperMix, PerkinElmer) were added and the plates were subsequently counted for radioactivity (counts per minute, CPM) in a MicroBeta^2 microplate counter (PerkinElmer).

[10] = target: T2, GLP-1R (Homo sapiens, UniProt P43220, Y152A); test: Whole-cell binding assay, competition with 125I-GLP-1(7-36)NH2; conditions: GLP-1R Y152A; CHO-K1
T2 construct: Flag; expressed in transfected cells
T2 sequence (P43220 24-463 Y152A): as the sequence (P43220 24-463 K202A) above, with Y129A, A179K counted along it
Procedure: as §2
(§3) For GLP-1R and GCGR, CHO-K1 cells (30,000 cells/well) were seeded into Isoplate-96 plates and incubated for 24 h at 37 °C in 5% CO2. […] After addition of scintillation cocktail (PerkinElmer), radioactivity (CPM) was counted on a MicroBeta^2 microplate counter (PerkinElmer). Data were normalized to the WT response and analyzed using three-parameter logistic equation.

[11] = target: T3, GLP-1R (Homo sapiens, UniProt P43220, R299A); test: as above; conditions: GLP-1R R299A; CHO-K1
T3 construct: Flag; expressed in transfected cells
T3 sequence (P43220 24-463 R299A): as the sequence (P43220 24-463 K202A) above, with A179K, R276A counted along it
Procedure: as §2, §3

[12] = read-out: binding pIC50 (converted)

Sequence of GLP-1R (Homo sapiens, UniProt P43220, Y205A) (P43220 24-463 Y205A): as the sequence (P43220 24-463 K202A) above, with A179K, Y182A counted along it

Row | Structure (SMILES) | binding Span [1] | IC50 [1, 12] | binding Span [2] | IC50 [2, 12] | binding Span [3] | IC50 [3, 12] | binding Span [4] | IC50 [4, 12] | binding Span [5] | binding pIC50 [5] | binding Span [6] | IC50 [6, 12] | binding Span [7] | IC50 [7, 12] | binding Span [8] | IC50 [8, 12] | binding pIC50 [9] | binding Span [10] | binding Span [11]
1 | CCCCCCCCCCCCCCCC(=O)N[C@@H](CCC(=O)NCCCC[C@H](NC(=O)[C@H](CC(=O)O)NC(=O)[C@H](CO)NC(=O)[C@@H](NC(=O)[C@H](Cc1ccccc1)NC(=O)[C@@H](NC(=O)CNC(=O)[C@H](CCC(N)=O)NC(=O)C(C)(C)NC(=O)[C@@H](N)Cc1c[nH]cn1)[C@@H](C)O)[C@@H](C)O)C(=O)N[C@@H](CO)C(=O)N[C@@H](CCCCN)C(=O)N[C@@H](Cc1ccc(O)cc1)C(=O)N[C@@H](CC(C)C)C(=O)N[C@@H](CC(=O)O)C(=O)N[C@@H](CCC(=O)O)C(=O)N[C@@H](CCCNC(=N)N)C(=O)N[C@@H](C)C(=O)N[C@@H](C)C(=O)N[C@@H](CCC(N)=O)C(=O)N[C@@H](CC(=O)O)C(=O)N[C@@H](Cc1ccccc1)C(=O)N[C@H](C(=O)N[C@@H](CCC(N)=O)C(=O)N[C@@H](Cc1c[nH]c2ccccc12)C(=O)N[C@@H](CC(C)C)C(=O)N[C@@H](CC(C)C)C(=O)N[C@@H](CC(=O)O)C(=O)NCC(=O)NCC(=O)N1CCC[C@H]1C(=O)N[C@@H](CO)C(=O)N[C@@H](CO)C(=O)NCC(=O)N[C@@H](C)C(=O)N1CCC[C@H]1C(=O)N1CCC[C@H]1C(=O)N1CCC[C@H]1C(=O)N[C@@H](CO)C(N)=O)C(C)C)C(=O)O [Peptide 20] | 6.01 ± 3.17 % WT | 50.1 nM | 15.32 ± 1.82 % WT | 3.47 nM | 73.44 ± 3.42 % WT | 3.02 nM | 100.10 ± 5.13 % WT | 4.07 nM | N.B. | N.B. | 10.85 ± 36.78 % WT | 1780 nM | 6.51 ± 2.59 % WT | 2.04 nM | 1.88 ± 1.66 % WT | 52.5 nM | – | – | –
2 | CC[C@H](C)[C@H](NC(=O)[C@H](CC(C)C)NC(=O)[C@H](Cc1c[nH]c2ccccc12)NC(=O)[C@H](CCC(N)=O)NC(=O)[C@@H](NC(=O)[C@H](Cc1ccccc1)NC(=O)[C@H](C)NC(=O)[C@H](CCCCNC(=O)COCCOCCNC(=O)COCCOCCNC(=O)CC[C@H](NC(=O)CCCCCCCCCCCCCCCCCCC(=O)O)C(=O)O)NC(=O)[C@H](CCC(N)=O)NC(=O)[C@H](C)NC(=O)[C@@H](NC(=O)[C@H](CCCCN)NC(=O)[C@H](CC(=O)O)NC(=O)[C@H](CC(C)C)NC(=O)C(C)(C)NC(=O)[C@@H](NC(=O)[C@H](CO)NC(=O)[C@H](Cc1ccc(O)cc1)NC(=O)[C@H](CC(=O)O)NC(=O)[C@H](CO)NC(=O)[C@@H](NC(=O)[C@H](Cc1ccccc1)NC(=O)[C@@H](NC(=O)CNC(=O)[C@H](CCC(=O)O)NC(=O)C(C)(C)NC(=O)[C@@H](N)Cc1ccc(O)cc1)[C@@H](C)O)[C@@H](C)O)[C@@H](C)CC)[C@@H](C)CC)C(C)C)C(=O)N[C@@H](C)C(=O)NCC(=O)NCC(=O)N1CCC[C@H]1C(=O)N[C@@H](CO)C(=O)N[C@@H](CO)C(=O)NCC(=O)N[C@@H](C)C(=O)N1CCC[C@H]1C(=O)N1CCC[C@H]1C(=O)N1CCC[C@H]1C(=O)N[C@@H](CO)C(N)=O [Tirzepatide] | – | – | – | – | – | – | – | – | – | – | – | – | – | – | – | – | N.B. | 11.22 ± 2.82 % WT | 8.59 ± 1.61 % WT
